Measurements as given in paper PMC5218480 (PLoS ONE, 2017).

System: MV-4-11 cells
Test: Gene expression microarray analysis (Affymetrix PrimeView) and GSEA
Format: cell-based, human
Design: RFU PODN (11730768_x_at) / Fold change /veh PODN (11730768_x_at) / RFU LINC00158 (11744669_a_at) / Fold change /veh LINC00158 (11744669_a_at) / RFU DUSP10 (11751237_a_at) / Fold change /veh DUSP10 (11751237_a_at) / RFU ID3 (11757404_x_at) / Fold change /veh ID3 (11757404_x_at) / RFU PLEKHG5 (11737974_s_at) / Fold change /veh PLEKHG5 (11737974_s_at) / RFU LRRC4B (11730491_at) / Fold change /veh LRRC4B (11730491_at) / RFU GIMAP4 (11747438_a_at) / Fold change /veh GIMAP4 (11747438_a_at) / RFU KRT8 (11758183_x_at) / Fold change /veh KRT8 (11758183_x_at) / RFU CNN1 (11734310_a_at) / Fold change /veh CNN1 (11734310_a_at) / RFU VPS37D (11726825_at) / Fold change /veh VPS37D (11726825_at) / RFU C10orf10 (11716522_x_at) / Fold change /veh C10orf10 (11716522_x_at) / RFU KIR2DL2 /// KIR2DL4 /// KIR2DL5A /// KIR2DL5B /// KIR2DS1 /// KIR2DS2 /// KIR2DS3 /// KIR2DS4 /// KIR3DL3 /// KIR3DL3 /// KIR3DS1 (11738374_at) / Fold change /veh KIR2DL2 /// KIR2DL4 /// KIR2DL5A /// KIR2DL5B /// KIR2DS1 /// KIR2DS2 /// KIR2DS3 /// KIR2DS4 /// KIR3DL3 /// KIR3DL3 /// KIR3DS1 (11738374_at) / RFU C1QL1 (11718748_at) / Fold change /veh C1QL1 (11718748_at) / RFU TMPRSS4 (11747572_a_at) / Fold change /veh TMPRSS4 (11747572_a_at) / RFU HAMP (11756126_x_at) / Fold change /veh HAMP (11756126_x_at) / RFU RNFT2 (11725882_a_at) / Fold change /veh RNFT2 (11725882_a_at) / RFU NR4A2 (11747474_a_at) / Fold change /veh NR4A2 (11747474_a_at) / RFU ABCC12 (11746883_a_at) / Fold change /veh ABCC12 (11746883_a_at) / RFU TMEM136 (11760407_x_at) / Fold change /veh TMEM136 (11760407_x_at) / RFU CLDN22 /// WWC2 (11732394_at) / Fold change /veh CLDN22 /// WWC2 (11732394_at) / RFU HLA-DPB1 (11760878_x_at) / Fold change /veh HLA-DPB1 (11760878_x_at) / RFU SPINT1 (11716480_a_at) / Fold change /veh SPINT1 (11716480_a_at) / RFU GAP43 (11754022_s_at) / Fold change /veh GAP43 (11754022_s_at) / RFU A4GNT (11735810_at) / Fold change /veh A4GNT (11735810_at) / RFU PRB3 (11715151_x_at) / Fold change /veh PRB3 (11715151_x_at) / RFU TUBB4B (11761932_at) / Fold change /veh TUBB4B (11761932_at) / RFU CAPN14 (11732068_a_at) / Fold change /veh CAPN14 (11732068_a_at) / RFU TMCC2 (11721928_a_at) / Fold change /veh TMCC2 (11721928_a_at) / RFU IRGQ (11745062_a_at) / Fold change /veh IRGQ (11745062_a_at) / RFU FAM174B (11720279_a_at) / Fold change /veh FAM174B (11720279_a_at) / RFU TMPRSS4 (11748680_a_at) / Fold change /veh TMPRSS4 (11748680_a_at) / RFU FAM212B (11763350_a_at) / Fold change /veh FAM212B (11763350_a_at) / RFU PLEKHG5 (11743358_a_at) / Fold change /veh PLEKHG5 (11743358_a_at) / RFU ZSCAN30 (11745921_a_at) / Fold change /veh ZSCAN30 (11745921_a_at) / RFU CMKLR1 (11741424_a_at) / Fold change /veh CMKLR1 (11741424_a_at) / RFU LOC101060620 /// MAPK8IP1 (11723275_at) / Fold change /veh LOC101060620 /// MAPK8IP1 (11723275_at) / RFU SPTSSB (11747773_x_at) / Fold change /veh SPTSSB (11747773_x_at) / RFU PRSS12 (11739890_at) / Fold change /veh PRSS12 (11739890_at) / RFU BIN1 (11741810_x_at) / Fold change /veh BIN1 (11741810_x_at) / RFU WNT11 (11732464_a_at) / Fold change /veh WNT11 (11732464_a_at) / RFU C10orf10 (11716521_a_at) / Fold change /veh C10orf10 (11716521_a_at) / RFU C5orf56 (11738089_at) / Fold change /veh C5orf56 (11738089_at) / RFU CYB561 (11721691_x_at) / Fold change /veh CYB561 (11721691_x_at) / RFU ANKRD19P (11752326_a_at) / Fold change /veh ANKRD19P (11752326_a_at) / RFU OR2T12 /// OR2T33 /// OR2T8 (11738714_s_at) / Fold change /veh OR2T12 /// OR2T33 /// OR2T8 (11738714_s_at) / RFU VCAN (11748164_a_at) / Fold change /veh VCAN (11748164_a_at) / RFU JSRP1 (11732532_at) / Fold change /veh JSRP1 (11732532_at) / RFU KRTAP10-11 (11738290_x_at) / Fold change /veh KRTAP10-11 (11738290_x_at) / RFU MYO3A (11730013_a_at) / Fold change /veh MYO3A (11730013_a_at) / RFU EBF3 (11725865_a_at) / Fold change /veh EBF3 (11725865_a_at) / RFU CAMK2N1 (11719241_x_at) / Fold change /veh CAMK2N1 (11719241_x_at) / RFU C5orf56 (11738088_a_at) / Fold change /veh C5orf56 (11738088_a_at) / RFU OLFML3 (11715873_a_at) / Fold change /veh OLFML3 (11715873_a_at) / RFU LOC100653217 /// NTM (11731650_a_at) / Fold change /veh LOC100653217 /// NTM (11731650_a_at) / RFU MAPK11 (11762145_a_at) / Fold change /veh MAPK11 (11762145_a_at) / RFU FIZ1 (11724087_x_at) / Fold change /veh FIZ1 (11724087_x_at) / RFU OASL (11726364_x_at) / Fold change /veh OASL (11726364_x_at) / RFU SOX15 (11748057_x_at) / Fold change /veh SOX15 (11748057_x_at) / RFU CD79A (11719716_a_at) / Fold change /veh CD79A (11719716_a_at) / RFU HIST1H1D (11736915_at) / Fold change /veh HIST1H1D (11736915_at) / RFU CASKIN2 (11723855_a_at) / Fold change /veh CASKIN2 (11723855_a_at) / RFU LOC730098 (11760151_x_at) / Fold change /veh LOC730098 (11760151_x_at) / RFU OR4N2 (11742367_at) / Fold change /veh OR4N2 (11742367_at) / RFU PRRT2 (11749266_a_at) / Fold change /veh PRRT2 (11749266_a_at) / RFU SNX32 (11753110_a_at) / Fold change /veh SNX32 (11753110_a_at) / RFU CDHR5 (11726645_a_at) / Fold change /veh CDHR5 (11726645_a_at) / RFU RCAN1 (11760418_a_at) / Fold change /veh RCAN1 (11760418_a_at) / RFU FAM167A (11723789_a_at) / Fold change /veh FAM167A (11723789_a_at) / RFU FAM26E (11764081_at) / Fold change /veh FAM26E (11764081_at) / RFU ISYNA1 (11749810_s_at) / Fold change /veh ISYNA1 (11749810_s_at) / RFU ACY1 (11761880_at) / Fold change /veh ACY1 (11761880_at) / RFU 11764098_at / Fold change /veh 11764098_at / RFU SAMD14 (11745864_x_at) / Fold change /veh SAMD14 (11745864_x_at) / RFU NPB (11741838_a_at) / Fold change /veh NPB (11741838_a_at) / RFU TMPRSS6 (11731388_a_at) / Fold change /veh TMPRSS6 (11731388_a_at) / RFU KRTAP10-2 (11738614_at) / Fold change /veh KRTAP10-2 (11738614_at) / RFU ARHGAP8 /// PRR5-ARHGAP8 (11727945_x_at) / Fold change /veh ARHGAP8 /// PRR5-ARHGAP8 (11727945_x_at) / RFU KRTAP5-7 /// NADSYN1 (11734609_at) / Fold change /veh KRTAP5-7 /// NADSYN1 (11734609_at) / RFU RASL12 (11751679_a_at) / Fold change /veh RASL12 (11751679_a_at) / RFU CDKN2B (11736163_a_at) / Fold change /veh CDKN2B (11736163_a_at) / RFU PRF1 (11729649_at) / Fold change /veh PRF1 (11729649_at) / RFU, ZNF638 /// ZNF638-IT1 / Fold change vs veh, ZNF638 /// ZNF638-IT1 / RFU, PANK3 / Fold change vs veh, PANK3 / RFU, SH3YL1 / Fold change vs veh, SH3YL1 / RFU, ZEB2 / Fold change vs veh, ZEB2 / RFU, NRIP1 / Fold change vs veh, NRIP1 / RFU, PTTG1IP / Fold change vs veh, PTTG1IP / RFU, CAPN2 / Fold change vs veh, CAPN2 / RFU, MED14 / Fold change vs veh, MED14 / RFU, SNORA58 / Fold change vs veh, SNORA58 / RFU, C1orf63 / Fold change vs veh, C1orf63 / RFU, LRRFIP1 / Fold change vs veh, LRRFIP1 / RFU, NDUFAF7 / Fold change vs veh, NDUFAF7 / RFU, SLC12A2 / Fold change vs veh, SLC12A2 / RFU, IBTK / Fold change vs veh, IBTK / RFU, ESF1 / Fold change vs veh, ESF1 / Fold change vs veh, TMEM50B / RFU, TAOK1 / Fold change vs veh, TAOK1 / RFU, ACBD3 / Fold change vs veh, ACBD3 / RFU, TMA16 / Fold change vs veh, TMA16 / RFU, RWDD3 / Fold change vs veh, RWDD3 / RFU, BCAT1 / Fold change vs veh, BCAT1 / RFU, EDEM3 / Fold change vs veh, EDEM3 / RFU, TMEM33 / Fold change vs veh, TMEM33 / RFU, WDR75 / Fold change vs veh, WDR75 / RFU, AHCTF1 / Fold change vs veh, AHCTF1 / RFU, TFRC / Fold change vs veh, TFRC / RFU, ZDHHC17 / Fold change vs veh, ZDHHC17 / RFU, NOM1 / Fold change vs veh, NOM1 / RFU, ARL8B / Fold change vs veh, ARL8B / RFU, ZBTB11 / Fold change vs veh, ZBTB11 / RFU, TAMM41 / Fold change vs veh, TAMM41 / RFU, KIAA1704 /// LOC100996395 / Fold change vs veh, KIAA1704 /// LOC100996395 / RFU, ING1 / Fold change vs veh, ING1 / RFU, TRMT61B / Fold change vs veh, TRMT61B / RFU, FUBP3 / Fold change vs veh, FUBP3 / RFU, TP53 / Fold change vs veh, TP53 / RFU, TNKS2 / Fold change vs veh, TNKS2 / RFU, ZFP14 / Fold change vs veh, ZFP14 / RFU, ACTR2 / Fold change vs veh, ACTR2 / RFU, PPP3R1 / Fold change vs veh, PPP3R1 / RFU, PIK3R1 / Fold change vs veh, PIK3R1 / RFU, HNRNPA1 / Fold change vs veh, HNRNPA1 / RFU, RNF170 / Fold change vs veh, RNF170 / RFU, ZNF28 / Fold change vs veh, ZNF28 / RFU, RNGTT / Fold change vs veh, RNGTT / RFU, OGT / Fold change vs veh, OGT / RFU, BRD1 / Fold change vs veh, BRD1 / RFU, MARS / Fold change vs veh, MARS / RFU, ZNF655 / Fold change vs veh, ZNF655 / RFU, FAHD1 / Fold change vs veh, FAHD1 / RFU, BDP1 / Fold change vs veh, BDP1 / RFU, LRRCC1 / Fold change vs veh, LRRCC1 / RFU, ARID1A / Fold change vs veh, ARID1A / RFU, ZNF146 / Fold change vs veh, ZNF146 / RFU, ZNF330 / Fold change vs veh, ZNF330 / RFU, GPN3 / Fold change vs veh, GPN3 / RFU, C9orf123 / Fold change vs veh, C9orf123 / RFU, N4BP2L2 / Fold change vs veh, N4BP2L2 / RFU, ARFIP1 / Fold change vs veh, ARFIP1 / RFU, FAM179B / Fold change vs veh, FAM179B / RFU, BCL10 / Fold change vs veh, BCL10 / RFU, UHRF1BP1L / Fold change vs veh, UHRF1BP1L / RFU, BET1 / Fold change vs veh, BET1 / RFU, CNOT2 / Fold change vs veh, CNOT2 / RFU, ZNF268 / Fold change vs veh, ZNF268 / Fold change vs veh, ZNF507 / RFU, DGCR2 / Fold change vs veh, DGCR2 / RFU, WDSUB1 / Fold change vs veh, WDSUB1 / Fold change vs veh, HSP90B1 /// MIR3652 / RFU, ADSS / Fold change vs veh, ADSS / RFU, GK / Fold change vs veh, GK / RFU, ZNF148 / Fold change vs veh, ZNF148 / RFU, TAF9 / Fold change vs veh, TAF9 / RFU, SLC1A5 / Fold change vs veh, SLC1A5 / RFU, SLMO2 / Fold change vs veh, SLMO2 / RFU, ABCC4 / Fold change vs veh, ABCC4 / RFU, LOC101060439 /// RAP1B / Fold change vs veh, LOC101060439 /// RAP1B / RFU, RFX7 / Fold change vs veh, RFX7 / RFU, GTPBP10 / Fold change vs veh, GTPBP10 / RFU, CNEP1R1 / Fold change vs veh, CNEP1R1 / RFU, BIVM-ERCC5 /// ERCC5 / Fold change vs veh, BIVM-ERCC5 /// ERCC5 / RFU, ILF3 / Fold change vs veh, ILF3 / RFU 11762660_at / Fold change /veh 11762660_at / RFU VCAN (11757783_s_at) / Fold change /veh VCAN (11757783_s_at) / RFU DDX43 (11728927_at) / Fold change /veh DDX43 (11728927_at) / RFU KRT8 (11758188_x_at) / Fold change /veh KRT8 (11758188_x_at) / RFU NKD1 (11759106_at) / Fold change /veh NKD1 (11759106_at) / RFU SRD5A1 (11742802_a_at) / Fold change /veh SRD5A1 (11742802_a_at) / RFU TPSAB1 /// TPSB2 (11721975_s_at) / Fold change /veh TPSAB1 /// TPSB2 (11721975_s_at) / RFU GSTM3 (11746129_a_at) / Fold change /veh GSTM3 (11746129_a_at) / RFU IL23R (11737362_x_at) / Fold change /veh IL23R (11737362_x_at) / RFU TMEM51 (11727254_a_at) / Fold change /veh TMEM51 (11727254_a_at) / RFU PIWIL2 (11732686_x_at) / Fold change /veh PIWIL2 (11732686_x_at) / RFU ORM1 (11744905_x_at) / Fold change /veh ORM1 (11744905_x_at) / RFU CCDC152 (11743942_at) / Fold change /veh CCDC152 (11743942_at) / RFU ECM1 (11717891_a_at) / Fold change /veh ECM1 (11717891_a_at) / RFU IL23R (11748794_a_at) / Fold change /veh IL23R (11748794_a_at) / RFU TNFAIP8L3 (11732012_x_at) / Fold change /veh TNFAIP8L3 (11732012_x_at) / RFU MBOAT4 (11741988_at) / Fold change /veh MBOAT4 (11741988_at) / RFU 11764193_at / Fold change /veh 11764193_at / RFU TMEM53 (11763286_at) / Fold change /veh TMEM53 (11763286_at) / RFU MAGEB2 (11727129_at) / Fold change /veh MAGEB2 (11727129_at) / RFU TMEM200A (11744735_a_at) / Fold change /veh TMEM200A (11744735_a_at) / RFU CCDC152 (11751479_a_at) / Fold change /veh CCDC152 (11751479_a_at) / RFU FAM211A (11726209_a_at) / Fold change /veh FAM211A (11726209_a_at) / RFU RGS16 (11746705_a_at) / Fold change /veh RGS16 (11746705_a_at) / RFU VCAN (11755009_s_at) / Fold change /veh VCAN (11755009_s_at) / RFU RHOB (11743442_s_at) / Fold change /veh RHOB (11743442_s_at) / RFU RGS16 (11720943_a_at) / Fold change /veh RGS16 (11720943_a_at) / RFU RGS16 (11720944_at) / Fold change /veh RGS16 (11720944_at) / RFU, VPS4B / Fold change vs veh, VPS4B / RFU, CREB1 / Fold change vs veh, CREB1 / RFU, DNAJC13 / Fold change vs veh, DNAJC13 / RFU, GNAQ / Fold change vs veh, GNAQ / RFU, CDK5R1 / Fold change vs veh, CDK5R1 / RFU, ZRANB3 / Fold change vs veh, ZRANB3 / RFU, CUL4A / Fold change vs veh, CUL4A / RFU, CCNY / Fold change vs veh, CCNY / RFU, UFL1 / Fold change vs veh, UFL1 / RFU, COG3 / Fold change vs veh, COG3 / RFU, DIAPH2 / Fold change vs veh, DIAPH2 / RFU, SKA2 / Fold change vs veh, SKA2 / RFU, AFF3 / Fold change vs veh, AFF3 / RFU, LMF1 / Fold change vs veh, LMF1 / RFU, IPO11 / Fold change vs veh, IPO11 / RFU, DFFB / Fold change vs veh, DFFB / RFU, FOXP1 / Fold change vs veh, FOXP1 / RFU, CARD8 / Fold change vs veh, CARD8 / RFU, STRN3 / Fold change vs veh, STRN3 / RFU, ADK / Fold change vs veh, ADK / RFU, RASSF2 / Fold change vs veh, RASSF2 / RFU, WIPF1 / Fold change vs veh, WIPF1 / RFU, LARP1B / Fold change vs veh, LARP1B / RFU, RASA1 / Fold change vs veh, RASA1 / RFU, RB1 / Fold change vs veh, RB1 / RFU, PPFIA1 / Fold change vs veh, PPFIA1 / RFU, MAT2A / Fold change vs veh, MAT2A / RFU, CCT5 / Fold change vs veh, CCT5 / RFU, WDR92 / Fold change vs veh, WDR92 / RFU, CUX1 / Fold change vs veh, CUX1 / RFU, TTC7A / Fold change vs veh, TTC7A / RFU, TMEM135 / Fold change vs veh, TMEM135 / RFU, DEPTOR / Fold change vs veh, DEPTOR / RFU, CPM / Fold change vs veh, CPM / RFU, DNAJB6 / Fold change vs veh, DNAJB6 / RFU, CACNA2D3 / Fold change vs veh, CACNA2D3 / RFU, DTX4 / Fold change vs veh, DTX4 / RFU, TFCP2 / Fold change vs veh, TFCP2 / RFU, GMCL1 /// GMCL1P1 / Fold change vs veh, GMCL1 /// GMCL1P1 / RFU, AEBP2 / Fold change vs veh, AEBP2 / RFU, SNHG1 /// SNORD22 /// SNORD25 /// SNORD26 /// SNORD27 /// SNORD28 /// SNORD29 /// SNORD31 / Fold change vs veh, SNHG1 /// SNORD22 /// SNORD25 /// SNORD26 /// SNORD27 /// SNORD28 /// SNORD29 /// SNORD31 / Fold change (Aza/veh), C12orf56 (ProbeSet 11735607_a_at) / Fold change (ACY-1035/veh), C12orf56 (ProbeSet 11735607_a_at) / Fold change (Aza/veh), FGFR1OP (ProbeSet 11751329_s_at) / Fold change (ACY-1035/veh), FGFR1OP (ProbeSet 11751329_s_at) / Fold change (Aza/veh), VPS36 (ProbeSet 11739960_a_at) / Fold change (ACY-1035/veh), VPS36 (ProbeSet 11739960_a_at) / RFU SYPL1 (11715823_x_at) / Fold change /veh SYPL1 (11715823_x_at) / RFU IGFBP7 (11715501_s_at) / Fold change /veh IGFBP7 (11715501_s_at) / RFU REEP3 (11722064_at) / Fold change /veh REEP3 (11722064_at) / RFU IGLL1 (11728026_x_at) / Fold change /veh IGLL1 (11728026_x_at): dose or concentration left out as unconfirmed
Conditions: ProbeSet 11738335_x_at; LIST B

## Nc1ncn([C@@H]2O[C@H](CO)[C@@H](O)[C@H]2O)c(=O)n1 [azacitidine]
  RFU, TP53: 77.85 RFU
